# From US20240024403A1, “Compositions and Methods for Managing Weight” (Unigen, Inc., priority 2012, published 2024)
# Experiment: High fat diet induced obesity (DIO) mouse model
# Type: in vivo, C57CL/6J mice
# Set-up: Epididymal Fat weight / Retroperitoneal Fat weight / Total Fat (sum of the three fat deposits) / Retroperitoneal Fat / Total Fat / Epididymal Fat, absolute weight / Retroperitoneal Fat, absolute weight: unit not given here
# Settings: DIO mice; for Hepatocellular ballooning (0-2) / Lobular Inflammation (0-3) / NSAH (sum) / Steatosis (0-3): liver pathology score
# Method: C57CL/6J mice aged 4-6 weeks (Korea Research Institute of Bioscience & Biotechnology, Ohchang, Korea) were housed in Polycarbonate cages (five mice per cage) in a room with a 12 hr:12 hr light-dark cycle and an ambient temperature of 24° C. All the mice were fed a commercial chow diet for 1 week after arrival in the animal facility. Mice were then divided into normal and obesity groups and fed with normal diet (ND) and high fat diets (HFD) respectively. The HFD group was divided into multiple treatment groups: a high fat diet vehicle group (HFD), an orlistat (purchased as OTC drug Alli®) positive control treatment group (ORI, 40 mg/kg of animal weight, 2 times/day) and optionally a sibutramine positive control treatment group (10 mg/kg, 1 time/day). The HFD contained 340 g of fat/kg of HFD (310 g lard plus 30 g soybean oil; Harlan Laboratories, USA). The HFD was formulated to provide 60% of the total energy generated by the diet from fat by replacing carbohydrate energy with lard and soybean oil, whereas the normal diet (ND) group was fed a diet providing only 18% of the total diet energy from fat(Harlan Laboratories, USA).
# Body weight was measured once each week and feed intake was measured twice per week. At the end of the experimental period, following a 12 hr. fasting period, the animals were anesthetized with ether, and blood was drawn from the abdominal vein. Liver and kidney and adipose tissues (epididymal, retroperitoneal, perirenal adipose tissues) were removed from each animal, rinsed with physiological saline, and weighed. Serum concentrations of glucose, total cholesterol, triglycerides, and LDL-cholesterol were determined using automatic analyzer (INTEGRA 400, Roche, Germany). Statistical significance of test results was measured using the Student's t-test.
# [1] = G1-G4 1000 mg/kg oral gavage two times per day
# [2] = G1-G4 1000 mg/kg oral gavage two times per day, in g (unit assumed)
# [3] = G1 = 800 mg/kg orally twice a day
# [4] = G1 = 1,100 mg/kg orally twice a day
# [5] = G1 = 1,200 mg/kg orally twice a day
# [6] = Mean score, G1 1,300 mg/kg twice a day
# [7] = Mean, Composition 11 (G1) 1,300 mg/kg twice a day, oral
# [8] = Mean, G1 1,300 mg/kg twice a day
# [9] = SIB 10 mg/kg, ORI 40 mg/kg, Mutamba extract 32 (G1) 1000 mg/kg, mean
# [10] = SIB 10 mg/kg, ORI 40 mg/kg, Mutamba extract 33-2 G1 1000 mg/kg, mean
# [11] = combination (1:1) 2000 mg/kg twice a day, group mean
# [12] = combination (5:1) 1200 mg/kg twice a day by gavage, group mean
# [13] = combination (5:1) 1200 mg/kg twice a day, biochemistry parameters, Table 85, first print
# [14] = combination (5:1) 1200 mg/kg twice a day, biochemistry parameters, Table 85, second print
# [15] = combination (10:1) 1100 mg/kg twice a day, biochemistry parameter
# [16] = combination (10:1) 1100 mg/kg twice a day, group mean
# [17] = plasma, Mean, G1 1,300 mg/kg twice a day
smiles,measurement,setting,value
"CCCCCCCCCCC[C@@H](C[C@@H]1OC(=O)[C@H]1CCCCCC)OC(=O)[C@H](CC(C)C)NC=O [ORI, orlistat]",Food Intake,[1],2.675 g/day
same,Weight Gain,[1],0.015 g/day
same,"Absolute Organ Weight, Epididymal Fat",[2],1.998
same,"Absolute Organ Weight, Liver",[2],1.184
same,ALP,[3],177.35 U/L
same,ALT,[3],23.03 U/L
same,AST,[3],51.40 U/L
same,Absolute Organ Weight: Epididymal fat,[3],2.03 g
same,Absolute Organ Weight: Liver,[3],1.19 g
same,Absolute Organ Weight: PeriRenal fat,[3],0.29 g
same,Absolute Organ Weight: Retroperitoneal fat,[3],0.5 g
same,Body Weight Gain,[3],-0.004 g/day
same,Food Intake,[3],3.147 g/day
same,LDL-C,[3],4.28 mg/dL
same,T-chol,[3],155.83 mg/dL
same,TG,[3],88.33 mg/dL
same,TP,[3],5.08 g/dL
same,ALT,[4],23.03 U/L
same,AST,[4],51.40 U/L
same,Absolute Organ Weight: Epididymal Fat,[4],2.03 g
same,Absolute Organ Weight: Liver,[4],1.19 g
same,Absolute Organ Weight: PeriRenal Fat,[4],0.29 g
same,Absolute Organ Weight: Retroperitoneal Fat,[4],0.5 g
same,Body Weight Gain,[4],-0.004 g/day
same,Food Intake,[4],3.147 g/day
same,LDL-C,[4],4.28 mg/dL
same,T-chol,[4],155.83 mg/dL
same,TG,[4],88.33 mg/dL
same,TP,[4],5.08 g/dL
same,ALT,[5],23.03 U/L
same,AST,[5],51.40 U/L
same,Absolute Organ Weight: Epididymal Fat,[5],2.03 g
same,Absolute Organ Weight: Liver,[5],1.19 g
same,Absolute Organ Weight: PeriRenal Fat,[5],0.29 g
same,Absolute Organ Weight: Retroperitoneal Fat,[5],0.5 g
same,Food Intake,[5],3.147 g/day
same,LDL-C,[5],4.28 mg/dL
same,T-chol,[5],155.83 mg/dL
same,TG,[5],88.33 mg/dL
same,TP,[5],5.08 g/dL
same,Weight Gain,[5],-0.004 g/day
same,Liver pathology: Hepatocellular ballooning (0-2),[6],0.33
same,Liver pathology: Lobular Inflammation (0-3),[6],1.50
same,Liver pathology: Steatosis (0-3),[6],0.33
same,Body Weight Gain,[7],-0.004 g/day
same,Food Intake,[7],3.147 g/day
same,ALP,[8],177.35 U/L
same,ALT,[8],23.03 U/L
same,AST,[8],51.40 U/L
same,Absolute Organ Weight: Epididymal Fat,[8],2.03 g
same,Absolute Organ Weight: Liver,[8],1.19 g
same,Absolute Organ Weight: PeriRenal Fat,[8],0.29 g
same,Absolute Organ Weight: Retroperitoneal Fat,[8],0.5 g
same,HDL-C,[8],75.57 mg/dL
same,LDL-C,[8],4.28 mg/dL
same,TP,[8],5.08 g/dL
same,FER (Food efficiency ratio),"Mean, body weight gain (g/day)/food intake (g/day), G1 1,300 mg/kg twice a day",−0.001
same,Liver pathology: NSAH (sum),"Mean, sum of scores, G1 1,300 mg/kg twice a day",2.17
same,Absolute organ weight: Total Fat,"Mean, sum of the three fat pads, G1 1,300 mg/kg twice a day",2.82 g
same,FER (Food efficiency ratio),"ORI group, mean, Table 136",0.000
same,Food Intake,"ORI group, mean, Table 136",3.195 g/day
same,Weight Gain,"ORI group, mean, Table 136",0.000 g/day
same,ALT,"ORI group, mean, Table 137",21.83 U/L
same,AST,"ORI group, mean, Table 137",65.65 U/L
same,Glu,"ORI group, mean, Table 137",194.00 mg/dL
same,HDL-C,"ORI group, mean, Table 137",62.42 mg/dL
same,LDL-C,"ORI group, mean, Table 137",4.03 mg/dL
same,T-chol,"ORI group, mean, Table 137",137.33 mg/dL
same,TG,"ORI group, mean, Table 137",27.83 mg/dL
same,"Epididymal Fat, absolute weight","ORI group, mean, Table 138",2.08
same,"Liver, absolute organ weight","ORI group, mean, Table 138",0.99 g
same,"Perirenal Fat, absolute weight","ORI group, mean, Table 138",0.28
same,"Retroperitoneal Fat, absolute weight","ORI group, mean, Table 138",0.57
same,Total Fat (sum of the three fat pads),"ORI group, mean, Table 138",2.94
same,Average Body Weight Gain,[9],0.038 g/day
same,Average Food Intake,[9],2.826 g/day
same,Body Weight Gain,[10],0.093 g/day
same,Food Intake,[10],2.769 g/day
same,FER (Food efficiency ratio),"combination (1:1) 2000 mg/kg twice a day, FER = body weight gain/food intake",0.000
same,Food Intake,[11],3.961 g/day
same,Weight Gain,[11],-0.002 g/day
same,FER (Food efficiency ratio),"combination (5:1) 1200 mg/kg twice a day by gavage, FER = body weight gain/food intake",0.000
same,Food Intake,[12],3.961 g/day
same,Weight Gain,[12],-0.002 g/day
same,Glu,[13],225.50 mg/dL
same,LDL-C,[13],3.30 mg/dL
same,T-chol,[13],134.00 mg/dL
same,TG,[13],62.50 mg/dL
same,Glu,[14],225.50 mg/dL
same,LDL-C,[14],3.30 mg/dL
same,T-chol,[14],134.00 mg/dL
same,TG,[14],62.50 mg/dL
same,FER (Food efficiency ratio),"combination (10:1) 1100 mg/kg twice a day, FER = body weight gain/food intake",0.000
same,Glu,[15],225.50 mg/dL
same,T-chol,[15],134.00 mg/dL
same,TG,[15],62.50 mg/dL
same,Food Intake,[16],3.961 g/day
same,Weight Gain,[16],-0.002 g/day
same,Hepatocellular ballooning (0-2),"ORI group, mean, Table 139",0.67
same,Lobular Inflammation (0-3),"ORI group, mean, Table 139",1.33
same,NSAH (sum),"ORI group, mean, Table 139",2.67
same,Steatosis (0-3),"ORI group, mean, Table 139",0.67
same,Hepatocellular ballooning (0-2),"mean, Table 133",0.33
same,Lobular Inflammation (0-3),"mean, Table 133",1.50
same,NSAH (sum),"mean, Table 133",2.17
same,Steatosis (0-3),"mean, Table 133",0.33
same,Glu,[17],269.17 mg/dL
same,T-chol,[17],156 mg/dL
same,TG,[17],88.3 mg/dL
same,"Absolute Organ Weight, Total Fat","sum of the three fat pads (epididymal, retroperitoneal, perirenal), in g (unit assumed)",2.952
same,Total Fat,"sum of the three fat pads, G1 = 800 mg/kg orally twice a day",2.82
same,Total Fat,"sum of the three fat pads, G1 = 1,100 mg/kg orally twice a day",2.82
same,Total Fat,"sum of the three fat pads, G1 = 1,200 mg/kg orally twice a day",2.82
same,Total Weight,"week 0, G1 = 800 mg/kg orally twice a day, in g (unit assumed)",40.22
same,Total Weight,"week 0, G1 = 1,100 mg/kg orally twice a day, in g (unit assumed)",40.22
same,Total Body Weight,"week 0, G1 = 1,200 mg/kg orally twice a day, in g (unit assumed)",40.22
same,Total Weight,"week 0, ORI group, mean, Table 134, in g (unit assumed)",38.61
same,Total Body Weight,"week 0, ORI group, mean, Table 145, in g (unit assumed)",40.22
same,Weight Gain,"week 1, G1 = 800 mg/kg orally twice a day",−2.24
same,Total Weight,"week 1, G1 = 800 mg/kg orally twice a day, in g (unit assumed)",37.98
same,Weight Gain,"week 1, G1 = 1,100 mg/kg orally twice a day",−2.24
same,Total Weight,"week 1, G1 = 1,100 mg/kg orally twice a day, in g (unit assumed)",37.98
same,Weight Gain,"week 1, G1 = 1,200 mg/kg orally twice a day",−2.24
same,Total Body Weight,"week 1, G1 = 1,200 mg/kg orally twice a day, in g (unit assumed)",37.98
same,Total Weight,"week 1, ORI group, mean, Table 134, in g (unit assumed)",33.17
same,Weight Gain,"week 1, ORI group, mean, Table 135",−5.43
same,Total Body Weight,"week 1, ORI group, mean, Table 145, in g (unit assumed)",37.98
same,Weight Gain,"week 1, ORI group, mean, Table 146",−2.24
same,Weight Gain,"week 2, G1 = 800 mg/kg orally twice a day",−6.14
